{"source": "patent US9029639B2", "about": "“Pyridazine compounds for controlling invertebrate pests” (BASF SE, priority 2009, dated 2015)", "tested_on": "Cowpea aphid (Aphis craccivora)", "experiment": "Activity against cowpea aphid (Aphis craccivora), spray on potted cowpea plants", "assay_type": "in vivo", "conditions": "population reduction assessed after 24, 72 and 120 hours, read-out: mortality in comparison with untreated controls", "procedure": "II.3 Activity Against Cowpea Aphid (Aphis craccivora)\nThe active compounds were formulated in 50:50 (vol:vol) acetone:water. The test solution was prepared at the day of use.\nPotted cowpea plants colonized with 100-150 aphids of various stages were sprayed after the pest population had been recorded. Population reduction was assesed after 24, 72, and 120 hours.", "data": [{"molecule": "Cc1nc(C(=O)N(C)c2ccnnc2)cs1", "note": "[Compound 5, 2-Methyl-thiazole-4-carboxylic acid methyl-pyridazin-4-yl-amide]", "values": [{"measurement": "mortality at 300 ppm", "value": "≥ 90", "unit": "%"}]}]}
